Results from publication PMC11468294, “Peptide Amphiphiles as Biodegradable Adjuvants for Efficient Retroviral Gene Delivery” (Advanced Healthcare Materials, 2023).
Where a SMILES comes first, the peptide text is derived from it. The star is where a group is joined. Palmitoyl = CCCCCCCCCCCCCCCC(=O)*

Key:
[1] = test system: HIV-1 infection of TZM-bl cells; test: HIV-1 infection assay (β-galactosidase luminescence reporter); assay type: cell-based; details: infectivity enhancing if n-fold at 1.3 µM larger than 2
Summary of the method: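 TZM-bl cells (10000 per well) were seeded one day before infection. Peptide nanofibril solution was mixed 1:1 (v/v) with HIV-1 (1:500 dilution) for 10 min before inoculation. Infection was read as β-galactosidase luminescence, in technical triplicates across three independent experiments.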

ThT fluorescence = assay type: physicochemical; parameters: key: + = ThT active; − = no ThT fluorescence observed; details: 1 mg mL-1 in PBS; ThT-active if fluorescence at least twice the control (PBS with 10% DMSO)
Experimental: ThT‐fluorescence: 20 µL 50 µM of ThT solution in PBS was pipetted in a black 384 well‐plate and 4 µL of the nanofibril solution 1 mg mL^−1 were added. For reference PBS with 10% DMSO (4 µL) instead of fibril solution was added. Subsequently, fluorescence emission was recorded λem = 488 nm upon excitation at λex = 440 nm with 10 nm bandwidth and multiple reads per well (3 × 3) using a Spark 20 M microplate reader (Tecan Group, Ltd). Data processing was performed with Origin software. A peptide fibril was considered as ThT‐active if the fluorescence intensity was at least twice as strong compared to the control (PBS containing 10% DMSO).

[2] = Control experiments degradation analysis without cells; assay type: physicochemical; details: Proteostat-stained fibrils without cells, 37°C, 30 min vs 3 d
Experimental: Control experiments degradation analysis: To check changes of fibril aggregation without cells fluorescence microscopy measurements (Leica DMi8 microscope, 10x air objective, Leica MC170 HD camera, λem = 527/30 nm, λex = 480/40 nm) were performed analogously to the cell‐experiments with PA1‐3. Briefly, 4 µL of the preformed peptide fibrils (1 mg mL^−1) were diluted with 4 µL Proteostat (Enzo Life Science, 1 µL stock in 999 µL PBS) and incubated for 10 min and further diluted with medium to receive a final peptide concentration of 20 µg mL^−1. The fibril aggregates were monitored after 30 min incubation at 37°C and for the evaluation of aggregate degradation, the samples were further incubated at 37°C for 3 d and analyzed without any additional washing step. […] The evaluation of aggregate size and number was conducted by analyzing Proteostat stained aggregates via the 3D objects counter function of ImageJ 1.53f51 for at least three individual measurements (area 1331.2 µm × 1331.2 µm) of three individually repeated experiments. […]
Aggregate analysis was conducted via fluorescence microscopy by cumulating triplicate measurements. […]

[3] = Zeta-potential measurement; assay type: physicochemical; details: fibrils 1 mg mL-1 in PBS, 60 µL diluted in 600 µL 1 mM KCl; triplicates
Experimental: Zeta‐potential: 60 µL of the peptides (1 mg mL^−1) were diluted in 600 µL, 1 mM KCl solution and placed in a disposable folded capillary cuvette. All zeta‐potential measurements (Zetasizer, Malvern Instruments) were conducted in triplicates for each sample.

HeLa cells [4] = test: Cell-PA interaction by confocal laser scanning microscopy; assay type: cell-based; details: peptide 20 µg mL-1 added for 30 min, washed, Proteostat stain
Experimental: (§1) Confocal laser scanning microscopy and degradation study with PA1‐3 and HeLa cells: HeLa cells were seeded one day prior to conducting the assay (40000/well) in an 8‐well IBIDI slide. 4 µL of the preformed peptide fibrils (1 mg mL^−1) were diluted with 4 µL Proteostat (Enzo Life Science, 1 µL stock in 999 µL PBS) and incubated for 10 min and further diluted with medium to receive a final peptide concentration of 20 µg mL^−1. The nucleus of the HeLa cells was stained with Hoechst 33 342 (NucBlue, Thermo Fisher Scientific). The peptide solution was transferred to the HeLa cells and incubated for 30 min at 37°C before washing three times with PBS. The interaction of fibril clusters with cells was monitored after 30 min incubation time on a Stellaris 8 confocal laser scanning microscope (Leica) equipped with a 20x air objective and laser excitation wavelengths of 405 nm (Hoechst) and 561 nm (Proteostat). For the evaluation of aggregate degradation, the samples were further incubated at 37°C for 3 d and analyzed without any additional washing step. The evaluation of aggregate size and number was conducted by analyzing Proteostat stained aggregates via the 3D objects counter function of ImageJ 1.53f51 for 3 individual measurements (area 581.25 µm × 581.25 µm). […] The number of aggregates larger than 10 µm^2 were counted via the 3D objects counter function of ImageJ 1.53f51. The mean number and standard deviations were determined by averaging at least three technical triplicates.
Figure S6 Laser scanning microscopy micrographs of A cells only (control), and Proteostat-stained (red) peptides B EF-
C ([…]), C PA1, D PA2, E PA3, F P1, G P2, H P3 added to HeLa cells (nucleus in blue). The peptides (20 µg mL-
1) were added to cells for 30 min, washed and analyzed. […]

Jurkat cells = test: CellTiter-Glo cell viability, Jurkat cells; assay type: cell-based; details: increasing peptide concentrations, 3 days, biological triplicate
Experimental: Cell Viability with TZM‐bl and Jurkat cells: The cell viability after addition of peptides to TZM‐bl cells and Jurkat was studied via the CellTiter‐Glo assay. To this end, 20000 cells TZM‐bl or 50000 Jurkat cells were incubated with serial diluted peptides. After 3 days the supernatant was removed and 100 µL CellTiter‐Glo Reagent 1:1 diluted in PBS was added. After 10 min 50 µL was transferred to white microplate and luminescence was recorded by Orion microplate luminometer.

HeLa cells [5] = test: Confocal microscopy degradation study with PA1-3 and HeLa cells; assay type: in vitro ADME; details: for degradation of aggregates > 10 µm^2 over 3 days: HeLa cells, 4 µg peptide (20 µg mL-1) added to 40,000 cells, 37°C, 30 min vs 3 d, Proteostat stain, confocal microscopy
Experimental: as §1

Compound	infectivity enhancement of HIV-1 (in words) [1]	ThT fluorescence (ThT fluorescence)	change of aggregate size and number without cells [2]	Zeta-Potential [3]	association with cellular membranes (HeLa cells [4])	viability of Jurkat cells (Jurkat cells)	degradation of aggregates > 10 µm^2 over 3 days (HeLa cells [5]) [%]	aggregate size (large aggregates) (HeLa cells [5]; confocal aggregate size analysis with HeLa cells) [µm^2]
CCCCCCCCCCCCCCCC(=O)N[C@@H](Cc1ccccc1)C(=O)N[C@@H](CCC(N)=O)C(=O)N[C@@H](Cc1ccccc1)C(=O)N[C@@H](CCCCN)C(=O)N[C@@H](Cc1ccccc1)C(=O)N[C@@H](CCCCN)C(=O)N[C@@H](CS)C(N)=O [PA2] (Palmitoyl-FQFKFKC-NH2)	strong infectivity enhancement of HIV‐1 in the range of EF‐C	+	not significantly changing in size and number	+19.2 ± 3.4 mV	association with cellular membranes	did not reduce the viability	52	> 50
C16-VVVAAAKKK-NH2 [PA1]	strong infectivity enhancement of HIV‐1 in the range of EF‐C	+	not significantly changing in size and number	+22.2 ± 0.7 mV	association with cellular membranes	did not reduce the viability	94	–
